{
  "source": "patent US20110287494A1",
  "about": "“PROCESS FOR PRODUCTION OF OPTICALLY ACTIVE AMINE DERIVATIVE” (Daicel Chemical Industries Ltd, priority 2008, published 2011)",
  "molecules": {"B1": {"name": "imine reductase purified from GF3587: NADPH-dependent imine reductase purified from Streptomyces sp. GF3587, amino acid sequence SEQ ID NO: 6 (protein)", "chain": "MGDNRTPVTVIGLGLMGQALAAAFLEAGHTTTVWNRSAGKAEQLVSQGAVQAATPADAVAASELVVVCLSTYDNMHDVIGSLGESLRGKVIVNLTSGSSDQGRETAAWAEKQGVEYLDGAIMITPPGIGTETAVLFYAGTQSVFEKYEPALKLLGGGTTYLGTDHGMPALYDVSLLGLMWGTLNSFLHGVAVVETAGVGAQQFLPWAHMWLEAIKMFTADYAAQIDAGDGKFPANDATLETHLAALKHLVHESEALGIDAELPKYSEALMERVISQGHAKNSYAAVLKAFRKPSE", "modifications": "Streptomyces sp. GF3587"}, "B2": {"name": "Q1EQE0: putative protein of Streptomyces kanamyceticus, SEQ ID NO: 17, imine reductase homologue (protein, listed as Streptomyces kanamyceticus)", "chain": "MPDNPSTKGRMMRNQQAEHTPVTVIGLGLMGQALAGAFLGAGHPTTVWNRTAAKAEPLVARGAKSAGSVAEAVAASPLVVVCVSDYDAVHALLDPLDGTALQGRTLVNLTSGTSAQARERAAWADGRGADYLDGAILAGPAAIGTADAVVLLSGPRSAFDPHASALGGLGAGTTYLGADHGLASLYDAAGLVMMWSILNGFLQGAALLGTAGVDATTFAPFITQGIGTVADWLPGYARQIDDGAYPADDAAIDTHLATMEHLIHESEFLGVNAELPRFIKALADRAVADGHGGSGYPALIEQFRTHSGK"}},
  "key": {"[1]": {"system": "imine reductase purified from GF3587", "experiment": "Substrate specificity of imine reductase purified from GF3587 (decrease of NADPH absorbance at 340 nm)", "assay_type": "biochemical, Streptomyces sp. GF3587", "settings": "for Relative Activity: 2-MPN = 100; for level of activity of reducing the compound, activity of reducing 2-methyl-1-pyrroline taken as 100: relative to 2-MPN = 100", "experimental": "To assess the substrate specificity of the imine reductase purified from GF3587, the activities of the enzyme towards the compounds listed in Table 4 were compared.\nOne ml of reaction mixtures having the composition described below were incubated at […]. The reaction mixtures were assayed to determine the decrease in absorbance (340 nm) of NADPH due to the generation of (R)-2-methylpyrrolidine. An imine reductase solution (2.04 U/ml) was added to reaction solutions containing each substrate compound shown in Table 4 to initiate the reaction. The absorbance of each reaction solution was determined at 340 nm after two minutes of incubation.\nThe relative activity shown in the table is defined as relative activity when the enzymatic activity on […] (2-MPN) is taken as 100."}, "[2]": {"system": "imine reductase responsible for the reduction of 2-methyl-1-pyrroline (crude enzyme solution)", "experiment": "Coenzyme dependency of 2-methyl-1-pyrroline reduction by crude enzyme solution", "assay_type": "biochemical, Streptomyces sp. GF3587", "settings": "10 mM coenzyme, 10 mM 2-methyl-1-pyrroline, pH 7.0, 30° C.", "experimental": "(§1) The cells of Streptomyces sp. GF3587 were cultured according to Example 1, and then crushed with glass beads. A crude enzyme solution was prepared by removing intact microbial cells and cell debris by centrifugation. 100 μl of the crude enzyme solution was added to 100 mM phosphate buffer (pH 7.0) containing 10 mM 2-methyl-1-pyrroline and 10 mM NADH or NADPH. During incubation of the mixture at 30° C., absorbance was measured at 340 nm to monitor the decrease of NAD(P)H. The enzymatic activity was determined by this assay."}, "[3]": {"experiment": "Optimal pH of imine reductase", "assay_type": "biochemical, Streptomyces sp. GF3587", "settings": "30° C.", "experimental": "Furthermore, the imine reductase purified from GF3587 was tested for its optimal pH. The reaction was started by adding an imine reductase (6.82 U/ml) solution to reaction mixtures having the same composition as shown in (1), except that various types of buffer agents were added. The mixtures were incubated at 30° C. for two minutes. The buffers used in this experiment and their pH are listed below.\n100 mM citrate buffer: pH 3 to 6\n100 mM sodium acetate buffer: pH 4 to 5.5\n100 mM potassium phosphate buffer: pH 6 to 8\n100 mM Tris-HCl buffer: pH 7.5 to 9\n100 mM glycine-sodium hydroxide buffer: pH 9 to 11\nThe reaction solutions were assayed to determine the decreases in absorbance (340 nm) of NADPH due to the generation of (R)-2-methylpyrrolidine. […] Furthermore, 80% or more of the maximal activity was retained at pH 6.0 to 7.5."}, "[4]": {"experiment": "Optimal temperature of imine reductase", "assay_type": "biochemical, Streptomyces sp. GF3587", "settings": "pH 7.0, 10 to 70° C. tested", "experimental": "The imine reductase purified from GF3587 was tested for its optimal temperature. 1 ml of reaction solution having the composition described below were incubated at 10 to 70° C. to measure the decrease of absorbance (340 nm) of NADPH due to the generation of (R)-2-methylpyrrolidine. After the reaction solutions were pre-incubated at each temperature for five minutes, an imine reductase solution (12.3 U/ml) was added thereto to initiate the reaction. After two minutes, the absorbance of the reaction solutions was measured at 340 nm. The amount of imine reductase that catalyzes the decrease (oxidation) of 1 μmol of NADPH per minute when incubated at 30° C. in the reaction solution having the composition described below is defined as 1 U. The result is shown in FIG. 7."}, "[5]": {"experiment": "Imine-reducing activity of microbial cell extracts of recombinant E. coli JM109", "assay_type": "biochemical", "settings": "protein expressed in E. coli", "experimental": "as §1\nThe E. coli JM109 strain that had been transformed with an imine reductase expression plasmid pSUSRIR1 was cultured in an ampicillin-containing liquid LB medium at 30° C. overnight. After adding 0.1 mM IPTG, the cells were further cultured for four hours.\nThe microbial cells were harvested by centrifugation, and then suspended in 100 mM potassium phosphate buffer (pH 7.0) containing 1 mM DTT. The microbial cells were crushed in Sealed-Type Ultrasonic Cell Disruptor UCD-200™ (Cosmo Bio). After centrifugation, the supernatant was collected as microbial cell extract. […] After adding 0.1 mM IPTG the cells were further cultured for four hours. Using the same method, the microbial cells were also crushed to prepare microbial cell extract.\nEach microbial cell extract was assayed for its imine-reducing activity towards 2-methyl-1-pyrroline. […]"}},
  "note": "“Also recorded” adds a separate entry of the source.",
  "data": [
    {"molecule": "C1=NCCCN1", "note": "[1,4,5,6-Tetrahydropyrimidine]", "values": [
      {"measurement": "Relative Activity", "setting": "[1]; substrate 10 mM", "result": 0}
    ]},
    {"molecule": "CC1=NCCC1", "note": "[2-Methyl-1-pyrroline (2-MPN), 2-Methyl-1-pyrroline]", "values": [
      {"measurement": "level of activity of reducing the compound, activity of reducing 2-methyl-1-pyrroline taken as 100", "setting": "[1]", "result": 100, "unit": "%"},
      {"measurement": "enzymatic activity corresponding to relative activity 100", "setting": "[1]; substrate 10 mM", "result": 2.04, "unit": "U/mL"},
      {"measurement": "Relative Activity", "setting": "[1]; substrate 10 mM", "result": 100}
    ]},
    {"molecule": "Cc1ccco1", "note": "[2-Methylfuran]", "values": [
      {"measurement": "Relative Activity", "setting": "[1]; substrate 10 mM", "result": 0}
    ]},
    {"molecule": "Cc1ncc[nH]1", "note": "[2-Methylimidazole]", "values": [
      {"measurement": "Relative Activity", "setting": "[1]; substrate 10 mM", "result": 0}
    ]},
    {"molecule": "Cc1cnccn1", "note": "[2-Methylpyrazine]", "values": [
      {"measurement": "Relative Activity", "setting": "[1]; substrate 10 mM", "result": 0}
    ]},
    {"molecule": "Cc1ncccn1", "note": "[2-Methylpyrimidine]", "values": [
      {"measurement": "Relative Activity", "setting": "[1]; substrate 10 mM", "result": 0}
    ]},
    {"molecule": "Cc1nccs1", "note": "[2-Methylthiazole]", "values": [
      {"measurement": "Relative Activity", "setting": "[1]; substrate 10 mM", "result": 0}
    ]},
    {"molecule": "Cc1cccs1", "note": "[2-Methylthiophene]", "values": [
      {"measurement": "Relative Activity", "setting": "[1]; substrate 5 mM", "result": 0}
    ]},
    {"molecule": "CC(=NO)c1ccccc1", "note": "[Acetophenone oxime]", "values": [
      {"measurement": "Relative Activity", "setting": "[1]; substrate 1 mM", "result": 0}
    ]},
    {"molecule": "Nc1nc2c(c(=O)[nH]1)N=C(CNc1ccc(C(=O)N[C@@H](CCC(=O)O)C(=O)O)cc1)CN2", "note": "[Dihydrofolic acid]", "values": [
      {"measurement": "level of activity of reducing the compound, activity of reducing 2-methyl-1-pyrroline taken as 100", "setting": "[1]", "result": 7.6, "unit": "%"},
      {"measurement": "Relative Activity", "setting": "[1]; substrate 0.05 mM", "result": 7.6}
    ]},
    {"molecule": "C/C(=N\\c1ccccc1)c1ccccc1", "note": "[N-((E/Z)-N-(1-phenylethylidene)aniline]", "values": [
      {"measurement": "level of activity of reducing the compound, activity of reducing 2-methyl-1-pyrroline taken as 100", "setting": "[1]", "result": 29, "unit": "%"},
      {"measurement": "Relative Activity", "setting": "[1]; substrate 25 mM", "result": 29}
    ]},
    {"molecule": "C(=NCc1ccccc1)c1ccccc1", "note": "[N-Benzylidenebenzylamine]", "values": [
      {"measurement": "Relative Activity", "setting": "[1]; substrate 10 mM", "result": 30}
    ]},
    {"molecule": "NC(=O)C1=CN([C@@H]2O[C@H](COP(=O)(O)OP(=O)(O)OC[C@H]3O[C@@H](n4cnc5c(N)ncnc54)[C@H](O)[C@@H]3O)[C@@H](O)[C@H]2O)C=CC1", "note": "[NADH]", "values": [
      {"measurement": "activity with the coenzyme, activity with NADPH taken as 100%", "setting": "[2]", "result": 7, "unit": "%"}
    ]},
    {"molecule": "NC(=O)C1=CN([C@@H]2O[C@H](COP(=O)(O)OP(=O)(O)OC[C@H]3O[C@@H](n4cnc5c(N)ncnc54)[C@H](OP(=O)(O)O)[C@@H]3O)[C@@H](O)[C@H]2O)C=CC1", "note": "[NADPH, reduced nicotinamide adenine dinucleotide phosphate]", "values": [
      {"measurement": "activity with the coenzyme, activity with NADPH taken as 100%", "setting": "[2]", "result": 100, "unit": "%"}
    ]},
    {"molecule": "B1", "values": [
      {"measurement": "optimal pH", "setting": "[3]", "result": 6.5},
      {"measurement": "optimal temperature", "setting": "[4]", "result": 50, "unit": "°C"}
    ]},
    {"molecule": "B2", "values": [
      {"measurement": "imine-reducing activity in words", "setting": "[5]", "result": "exhibited the imine-reducing activity; also recorded: had imine-reducing activity"}
    ]}
  ]
}
